How the values were obtained:
[1] = tested on: soybean; experiment: Test C pre-/postemergence herbicide test; assay type: in vivo, Glycine max
Procedure, shortened: (§1)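 Greenhouse-grown plants were evaluated visually 12 to 14 days after treatment, with 100 meaning complete control and 0 no effect. Application was preemergence, or postemergence at 2 to 18 cm.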

[2] = tested on: woolly cupgrass; experiment: Test C pre-/postemergence herbicide test; assay type: in vivo, Eriochloa villosa
Procedure, shortened: as §1

[3] = tested on: giant foxtail; experiment: Test C pre-/postemergence herbicide test; assay type: in vivo, Setaria faberi
Procedure, shortened: as §1

[4] = tested on: yellow nutsedge; experiment: Test C pre-/postemergence herbicide test; assay type: in vivo, Cyperus esculentus
Procedure, shortened: as §1

[5] = tested on: morningglory; experiment: Test C pre-/postemergence herbicide test; assay type: in vivo, Ipomoea coccinea; design: key to Plant response rating, Morningglory: 0 = no effect, 100 = complete control
Procedure, shortened: as §1

[6] = tested on: barnyardgrass; experiment: Test C flooded paddy test; assay type: in vivo, Echinochloa crus-galli; settings: for Plant response rating, Barnyardgrass: 500 g ai/ha, visual rating after 12 to 14 days
Procedure, shortened: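 Weeds and wheat were sprayed after emergence, at a height of 2 to 18 cm (1–4 leaves), and paddy barnyardgrass was flooded and treated at two leaves. Assessment took place 12–14 days later in the greenhouse on a 0-to-100 visual control scale. A dash means no result was obtained.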

[7] = tested on: ducksalad; experiment: Test C flooded paddy test; assay type: in vivo, Heteranthera limosa; settings: for Plant response rating, Ducksalad: 500 g ai/ha, visual rating after 12 to 14 days
[8] = 62 g ai/ha, preemergence, scale 0 to 100
[9] = 250 g ai/ha, scale 0-100, preemergence
[10] = 500 g ai/ha, scale 0 to 100 (0 no effect, 100 complete control), visual, 12 to 14 days, preemergence
[11] = 125 g ai/ha, scale 0 (no effect) to 100 (complete control), visual, 12 to 14 days, preemergence
[12] = 62 g ai/ha, scale 0 to 100 (0 no effect, 100 complete control)
[13] = 125 g ai/ha, scale 0 to 100 (0 no effect, 100 complete control)
[14] = 250 g ai/ha, scale of 0 to 100, 0 is no effect, 100 is complete control
[15] = scale 0 to 100 (0 no effect, 100 complete control)
[16] = 250 g ai/ha, scale 0 to 100 (0 no effect, 100 complete control), visual, 12 to 14 days, preemergence
[17] = Preemergence, 500 g ai/ha, scale 0 to 100, 0 no effect, 100 complete control
[18] = 125 g ai/ha, scale of 0 to 100, 0 is no effect, 100 is complete control

## CCn1nc(C2(C)CC2)cc1C(=O)Nc1cc(C(=O)N2CC=CC2)ccc1F [Compound 301]
[1]; [8]
  Plant response rating, Soybean: 15
[1]; [9]
  Plant response rating, Soybean: 20
[1]; [10]
  Plant response rating, Soybean: 45
[2]; [8]
  Plant response rating, Cupgrass, Woolly: 10
[2]; [11]
  Plant response rating, Cupgrass, Woolly: 50
[2]; [9]
  Plant response rating, Cupgrass, Woolly: 70
[2]; [10]
  Plant response rating, Cupgrass, Woolly: 90
[3]; [8]
  Plant response rating, Foxtail, Giant: 35
[3]; [11]
  Plant response rating, Foxtail, Giant: 60
[3]; [9]
  Plant response rating, Foxtail, Giant: 95
[3]; [10]
  Plant response rating, Foxtail, Giant: 100
[4]; [8]
  Plant response rating, Nutsedge, Yellow: 0
[4]; [11]
  Plant response rating, Nutsedge, Yellow: 5
[4]; [9]
  Plant response rating, Nutsedge, Yellow: 10
[4]; [10]
  Plant response rating, Nutsedge, Yellow: 20
[5]; [8]
  Plant response rating, Morningglory: 5
[5]; [11]
  Plant response rating, Morningglory: 5
[5]; [9]
  Plant response rating, Morningglory: 10
[5]; [10]
  Plant response rating, Morningglory: 60
[6]; [12]
  Barnyardgrass plant response rating: 50
[6]; [13]
  Barnyardgrass plant response rating: 75
[6]; [14]
  Barnyardgrass plant response rating: 90
[6]; [15]
  Plant response rating, Barnyardgrass: 95
[7]; 62 g ai/ha, scale 0 to 100
  Ducksalad plant response rating: 85
[7]; [13]
  Ducksalad plant response rating: 90
[7]; [14]
  Ducksalad plant response rating: 90
[7]; [15]
  Plant response rating, Ducksalad: 95

## C=CCn1nc(C(C)(C)C)cc1C(=O)Nc1cccc(C(=O)NCC)c1 [Compound 56]
[1]; 62 g ai/ha, preemergence
  Plant response rating (0 = no effect, 100 = complete control), Soybean: 0
[1]; [11]
  Plant response rating, Soybean: 0
[1]; [16]
  Plant response rating, Soybean: 10
[1]; [17]
  Soybean plant response rating: 15
[2]; 62 g ai/ha, preemergence
  Plant response rating (0 = no effect, 100 = complete control), Cupgrass, Woolly: 0
[2]; [11]
  Plant response rating, Cupgrass, Woolly: 0
[2]; [16]
  Plant response rating, Cupgrass, Woolly: 35
[2]; [17]
  Cupgrass, Woolly plant response rating: 40
[3]; 62 g ai/ha, preemergence
  Plant response rating (0 = no effect, 100 = complete control), Foxtail, Giant: 45
[3]; [11]
  Plant response rating, Foxtail, Giant: 85
[3]; [16]
  Plant response rating, Foxtail, Giant: 100
[3]; [17]
  Foxtail, Giant plant response rating: 100
[4]; 62 g ai/ha, preemergence
  Plant response rating (0 = no effect, 100 = complete control), Nutsedge, Yellow: 0
[4]; [11]
  Plant response rating, Nutsedge, Yellow: 0
[4]; [16]
  Plant response rating, Nutsedge, Yellow: 0
[4]; [17]
  Nutsedge, Yellow plant response rating: 20
[5]; 62 g ai/ha, preemergence
  Plant response rating (0 = no effect, 100 = complete control), Morningglory: 0
[5]; [11]
  Plant response rating, Morningglory: 0
[5]; [16]
  Plant response rating, Morningglory: 55
[5]; [17]
  Morningglory plant response rating: 55
[6]; [12]
  Barnyardgrass plant response rating: 0
[6]; [18]
  Barnyardgrass plant response rating: 20
[6]; [14]
  Barnyardgrass plant response rating: 65
[6]; [15]
  Plant response rating, Barnyardgrass: 80
[7]; [12]
  Ducksalad plant response rating: 15
[7]; [18]
  Ducksalad plant response rating: 55
[7]; [14]
  Ducksalad plant response rating: 70
[7]; [15]
  Plant response rating, Ducksalad: 75

Reference: patent US20060069132A1, “Azolecarboxamide herbicides” (priority 2004, published 2006)
